SMILES strings stand for the structures. Activity calls are given as the source filed them. For most assays here, no stated cut-off is given here; in the data, actives have a measured Kd and inactives only a lower limit.

Data on twelve compounds can be found in ChEMBL document CHEMBL3991601, “The target landscape of clinical kinase drugs” (Science, 2017).

Test [1] addresses Casein kinase II subunit alpha' (Homo sapiens, UniProt P19784).
Test [2] concerns the target T1, Mitogen-activated protein kinase 15 (Homo sapiens, UniProt Q8TD08).
T1 sequence (Q8TD08 whole entry): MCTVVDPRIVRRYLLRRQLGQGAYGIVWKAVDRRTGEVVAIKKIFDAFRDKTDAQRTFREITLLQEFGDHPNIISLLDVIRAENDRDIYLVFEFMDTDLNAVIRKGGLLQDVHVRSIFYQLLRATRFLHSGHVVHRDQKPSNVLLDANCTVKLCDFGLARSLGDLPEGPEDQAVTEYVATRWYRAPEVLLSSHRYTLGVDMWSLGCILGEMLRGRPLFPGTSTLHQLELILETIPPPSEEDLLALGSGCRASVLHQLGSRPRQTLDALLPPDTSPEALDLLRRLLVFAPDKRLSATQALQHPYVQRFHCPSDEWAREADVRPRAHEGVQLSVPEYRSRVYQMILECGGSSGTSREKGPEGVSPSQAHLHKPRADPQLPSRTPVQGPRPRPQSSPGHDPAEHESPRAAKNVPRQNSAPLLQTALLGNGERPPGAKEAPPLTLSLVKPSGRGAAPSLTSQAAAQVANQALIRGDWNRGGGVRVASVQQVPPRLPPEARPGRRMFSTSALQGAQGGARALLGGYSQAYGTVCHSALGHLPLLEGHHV

Test [3] has as its target Ephrin type-A receptor 4 (Homo sapiens, UniProt P54764).
Test [4] has as its target Mitogen-activated protein kinase kinase kinase kinase 5 (Homo sapiens, UniProt Q9Y4K4).
The target of test [5] is Atypical kinase COQ8A, mitochondrial (Homo sapiens, UniProt Q8NI60).
Test [6] deals with T2, Electron transfer flavoprotein subunit beta (Homo sapiens, UniProt P38117).
T2 sequence (P38117 whole entry): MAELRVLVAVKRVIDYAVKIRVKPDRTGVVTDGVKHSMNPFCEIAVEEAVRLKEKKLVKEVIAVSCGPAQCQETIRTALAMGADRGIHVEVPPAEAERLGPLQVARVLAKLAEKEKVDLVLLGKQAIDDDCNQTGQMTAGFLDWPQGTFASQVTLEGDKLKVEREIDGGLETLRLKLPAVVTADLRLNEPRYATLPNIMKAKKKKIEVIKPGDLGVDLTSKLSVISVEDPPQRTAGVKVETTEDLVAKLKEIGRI

Test [7] addresses Casein kinase I isoform epsilon (Homo sapiens, UniProt P49674).
Test [8] has as its target T3, Bone morphogenetic protein receptor type-2 (Homo sapiens, UniProt Q13873).
T3 sequence (Q13873 whole entry): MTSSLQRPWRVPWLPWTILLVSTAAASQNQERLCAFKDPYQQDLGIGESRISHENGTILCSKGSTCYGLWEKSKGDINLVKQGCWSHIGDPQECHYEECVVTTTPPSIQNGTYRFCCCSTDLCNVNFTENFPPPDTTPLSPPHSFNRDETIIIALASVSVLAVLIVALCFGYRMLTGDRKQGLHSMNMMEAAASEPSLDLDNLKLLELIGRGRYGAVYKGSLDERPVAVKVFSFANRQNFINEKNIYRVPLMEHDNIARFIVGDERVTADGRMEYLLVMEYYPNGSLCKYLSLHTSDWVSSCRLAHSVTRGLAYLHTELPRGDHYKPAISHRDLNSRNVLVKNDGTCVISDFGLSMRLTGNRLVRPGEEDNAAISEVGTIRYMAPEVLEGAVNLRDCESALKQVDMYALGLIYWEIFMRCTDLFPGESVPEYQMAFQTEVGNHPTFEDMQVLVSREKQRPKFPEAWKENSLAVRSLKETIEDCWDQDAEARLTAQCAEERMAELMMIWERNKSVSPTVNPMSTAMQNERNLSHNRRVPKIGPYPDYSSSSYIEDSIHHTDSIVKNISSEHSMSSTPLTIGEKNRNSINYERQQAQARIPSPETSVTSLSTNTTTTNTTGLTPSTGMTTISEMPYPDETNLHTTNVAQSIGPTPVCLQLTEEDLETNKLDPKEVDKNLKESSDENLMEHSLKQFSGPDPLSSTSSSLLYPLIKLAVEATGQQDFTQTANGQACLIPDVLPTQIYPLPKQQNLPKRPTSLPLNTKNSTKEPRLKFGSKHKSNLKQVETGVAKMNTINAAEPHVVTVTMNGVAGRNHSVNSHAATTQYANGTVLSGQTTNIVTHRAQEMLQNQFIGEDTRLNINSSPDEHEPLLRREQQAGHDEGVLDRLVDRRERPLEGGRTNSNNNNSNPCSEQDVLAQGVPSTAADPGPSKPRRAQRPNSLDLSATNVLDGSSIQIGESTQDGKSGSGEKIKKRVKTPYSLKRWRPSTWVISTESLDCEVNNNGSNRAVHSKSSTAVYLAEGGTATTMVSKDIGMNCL

Test [9] has as its target T4, Peroxisomal acyl-coenzyme A oxidase 1 (Homo sapiens, UniProt Q15067).
T4 sequence (Q15067 whole entry): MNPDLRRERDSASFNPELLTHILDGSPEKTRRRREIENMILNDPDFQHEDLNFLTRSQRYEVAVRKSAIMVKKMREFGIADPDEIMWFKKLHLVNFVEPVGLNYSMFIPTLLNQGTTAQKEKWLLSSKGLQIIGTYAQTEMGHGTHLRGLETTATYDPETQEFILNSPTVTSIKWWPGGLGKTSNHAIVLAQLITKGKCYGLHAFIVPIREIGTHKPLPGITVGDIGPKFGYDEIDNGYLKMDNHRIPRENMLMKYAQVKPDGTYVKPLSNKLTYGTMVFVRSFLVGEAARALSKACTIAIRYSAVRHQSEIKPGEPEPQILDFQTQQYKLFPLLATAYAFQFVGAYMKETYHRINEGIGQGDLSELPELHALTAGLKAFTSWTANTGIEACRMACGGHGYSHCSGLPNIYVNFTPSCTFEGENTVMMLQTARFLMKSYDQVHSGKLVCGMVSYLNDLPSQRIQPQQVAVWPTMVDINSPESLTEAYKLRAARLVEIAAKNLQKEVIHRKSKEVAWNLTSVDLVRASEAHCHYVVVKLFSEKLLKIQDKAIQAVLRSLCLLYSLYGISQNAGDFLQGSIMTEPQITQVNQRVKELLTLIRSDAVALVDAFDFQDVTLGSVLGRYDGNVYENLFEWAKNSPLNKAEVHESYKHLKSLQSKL

Atypical kinase COQ8A, mitochondrial, sequence (Q8NI60 whole entry): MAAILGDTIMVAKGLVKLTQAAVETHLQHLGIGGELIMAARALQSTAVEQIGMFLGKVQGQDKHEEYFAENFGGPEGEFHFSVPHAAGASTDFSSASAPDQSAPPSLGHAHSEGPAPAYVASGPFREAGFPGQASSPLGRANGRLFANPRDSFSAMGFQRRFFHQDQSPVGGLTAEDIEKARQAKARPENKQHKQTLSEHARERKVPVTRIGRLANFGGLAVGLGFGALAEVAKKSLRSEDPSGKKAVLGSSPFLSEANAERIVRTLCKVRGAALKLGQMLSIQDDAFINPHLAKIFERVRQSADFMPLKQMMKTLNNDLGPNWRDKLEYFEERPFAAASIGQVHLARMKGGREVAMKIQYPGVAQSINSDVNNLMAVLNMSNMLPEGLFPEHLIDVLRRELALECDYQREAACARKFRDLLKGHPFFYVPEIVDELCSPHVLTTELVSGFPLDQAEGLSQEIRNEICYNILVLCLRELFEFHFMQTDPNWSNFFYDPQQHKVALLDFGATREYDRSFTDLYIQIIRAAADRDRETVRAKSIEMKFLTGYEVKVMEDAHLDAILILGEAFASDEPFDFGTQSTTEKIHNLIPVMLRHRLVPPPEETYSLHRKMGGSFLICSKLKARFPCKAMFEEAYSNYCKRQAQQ
Casein kinase II subunit alpha', sequence (P19784 whole entry): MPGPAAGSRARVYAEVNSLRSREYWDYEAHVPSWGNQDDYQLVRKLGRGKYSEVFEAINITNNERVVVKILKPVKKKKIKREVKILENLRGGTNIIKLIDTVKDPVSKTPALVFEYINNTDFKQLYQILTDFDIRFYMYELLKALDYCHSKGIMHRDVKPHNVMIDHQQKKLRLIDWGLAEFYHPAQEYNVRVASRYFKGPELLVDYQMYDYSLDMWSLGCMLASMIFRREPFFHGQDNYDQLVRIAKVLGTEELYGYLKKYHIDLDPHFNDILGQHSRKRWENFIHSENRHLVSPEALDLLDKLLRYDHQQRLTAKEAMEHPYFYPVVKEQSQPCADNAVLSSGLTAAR
Mitogen-activated protein kinase kinase kinase kinase 5, sequence (Q9Y4K4 whole entry): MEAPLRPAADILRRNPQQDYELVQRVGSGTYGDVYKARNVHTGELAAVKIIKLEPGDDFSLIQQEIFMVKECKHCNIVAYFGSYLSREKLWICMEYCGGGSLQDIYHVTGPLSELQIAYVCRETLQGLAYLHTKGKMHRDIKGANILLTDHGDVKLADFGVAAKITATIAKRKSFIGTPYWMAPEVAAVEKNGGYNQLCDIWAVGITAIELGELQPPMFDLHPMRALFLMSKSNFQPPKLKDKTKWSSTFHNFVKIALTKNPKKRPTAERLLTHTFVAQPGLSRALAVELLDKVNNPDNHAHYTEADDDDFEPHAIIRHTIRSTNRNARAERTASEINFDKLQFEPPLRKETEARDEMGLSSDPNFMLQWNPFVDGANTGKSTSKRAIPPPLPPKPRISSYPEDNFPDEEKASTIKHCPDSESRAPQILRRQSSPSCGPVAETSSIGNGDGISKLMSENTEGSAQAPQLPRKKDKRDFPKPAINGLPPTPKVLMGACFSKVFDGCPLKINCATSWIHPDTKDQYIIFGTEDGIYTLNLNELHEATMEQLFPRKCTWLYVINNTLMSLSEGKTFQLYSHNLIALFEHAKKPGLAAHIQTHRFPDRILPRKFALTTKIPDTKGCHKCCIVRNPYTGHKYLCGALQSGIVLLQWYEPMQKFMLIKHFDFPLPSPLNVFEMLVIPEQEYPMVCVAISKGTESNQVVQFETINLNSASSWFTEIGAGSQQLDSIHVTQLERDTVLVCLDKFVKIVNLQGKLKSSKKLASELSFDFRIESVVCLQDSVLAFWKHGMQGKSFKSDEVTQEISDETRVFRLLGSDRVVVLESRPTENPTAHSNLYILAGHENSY
Ephrin type-A receptor 4, sequence (P54764 whole entry): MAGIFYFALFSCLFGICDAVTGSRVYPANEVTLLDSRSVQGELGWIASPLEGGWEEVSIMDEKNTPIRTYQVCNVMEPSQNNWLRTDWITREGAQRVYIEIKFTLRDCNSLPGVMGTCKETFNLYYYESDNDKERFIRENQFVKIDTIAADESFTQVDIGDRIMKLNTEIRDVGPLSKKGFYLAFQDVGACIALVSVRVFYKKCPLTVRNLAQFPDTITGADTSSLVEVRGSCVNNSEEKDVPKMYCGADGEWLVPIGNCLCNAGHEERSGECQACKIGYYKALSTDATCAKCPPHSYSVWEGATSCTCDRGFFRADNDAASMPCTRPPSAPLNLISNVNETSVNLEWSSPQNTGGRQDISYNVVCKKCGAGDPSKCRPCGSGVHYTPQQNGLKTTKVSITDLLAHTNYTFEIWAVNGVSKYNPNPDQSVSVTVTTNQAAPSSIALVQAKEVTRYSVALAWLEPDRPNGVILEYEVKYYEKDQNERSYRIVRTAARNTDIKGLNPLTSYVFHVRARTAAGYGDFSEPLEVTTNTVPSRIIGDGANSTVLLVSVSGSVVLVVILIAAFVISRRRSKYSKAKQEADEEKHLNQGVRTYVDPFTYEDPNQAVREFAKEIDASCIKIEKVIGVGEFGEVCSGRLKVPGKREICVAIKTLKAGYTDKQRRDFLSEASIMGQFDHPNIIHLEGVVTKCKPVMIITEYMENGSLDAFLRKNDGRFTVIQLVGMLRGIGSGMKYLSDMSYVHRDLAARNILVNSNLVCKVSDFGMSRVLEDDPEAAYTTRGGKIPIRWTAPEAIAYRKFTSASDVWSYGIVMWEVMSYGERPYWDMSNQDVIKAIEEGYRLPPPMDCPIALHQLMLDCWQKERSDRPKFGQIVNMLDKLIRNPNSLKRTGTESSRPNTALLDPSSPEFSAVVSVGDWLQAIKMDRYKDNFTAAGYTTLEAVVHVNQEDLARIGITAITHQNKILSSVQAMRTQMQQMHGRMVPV
Casein kinase I isoform epsilon, sequence (P49674 whole entry, canonical isoform): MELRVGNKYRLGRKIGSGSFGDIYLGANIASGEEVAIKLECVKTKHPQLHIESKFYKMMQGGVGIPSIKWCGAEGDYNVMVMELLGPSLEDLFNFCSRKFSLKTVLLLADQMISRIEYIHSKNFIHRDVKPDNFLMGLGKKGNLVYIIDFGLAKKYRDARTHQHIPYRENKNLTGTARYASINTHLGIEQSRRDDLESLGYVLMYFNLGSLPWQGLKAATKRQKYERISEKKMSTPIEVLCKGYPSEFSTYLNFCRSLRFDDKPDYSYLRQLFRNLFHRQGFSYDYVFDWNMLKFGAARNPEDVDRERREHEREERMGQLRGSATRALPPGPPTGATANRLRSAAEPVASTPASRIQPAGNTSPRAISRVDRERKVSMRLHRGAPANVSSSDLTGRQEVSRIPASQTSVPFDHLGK

Turning to `c1cc(OCCN2CCCCC2)cc(-c2n[nH]c3ccc(-c4nc[nH]n4)cc23)c1` [CC-401], the Kd in [1] is 0.584 µM (active); in test [2] it was > 30 µM (inactive); in [3] it was > 30 µM (inactive); in [4], > 30 µM (inactive); in test [5] it was > 30 µM (inactive); in test [6] it was > 30 µM (inactive). The figures for the Kd in [7], in [8] and in test [9] were 0.285 µM (active), > 30 µM (inactive) and > 30 µM (inactive), respectively.
For the compound `O=S(=O)(c1cccc2c(O)nccc12)N1CCCNCC1` [HYDROXYFASUDIL], the Kd in test [1], in [2], in [3], in test [4], in [5] and in [6] was > 30 µM (inactive) each time. In addition, the Kd in [7], in [8] and in test [9] was > 30 µM (inactive) in each case.
`C=CC(=O)Nc1cccc(Nc2nc(Nc3ccc(N4CCN(C(C)=O)CC4)cc3OC)ncc2C(F)(F)F)c1` [ROCILETINIB]: the Kd in [1], in [2], in test [3], in [4], in test [5] and in test [6] was > 30 µM (inactive) throughout. Moreover, the Kd in [7], in test [8] and in test [9] was > 30 µM (inactive) each time.
As to `Cc1c(Cn2c(C)nc3c(C(=O)O)cc(N4CCOCC4)cc32)cccc1C(F)(F)F` [GSK-2636771], the Kd in test [1], in [2], in [3], in test [4], in test [5] and in test [6] was > 30 µM (inactive) each time. For the same compound, the Kd in [7], in [8] and in test [9] was > 30 µM (inactive) each time.
For the compound `COc1cc2ncnc(Nc3ccc(O)cc3)c2cc1OC` [WHI-P131], the Kd in test [1], in test [2], in [3], in test [4], in test [5] and in [6] was > 30 µM (inactive) each time. Further, the Kd in test [7], in test [8] and in test [9] was > 30 µM (inactive) throughout.
In the case of `Cn1c(=O)c(F)c(Nc2ccc(I)cc2F)c2c(=O)n(C[C@@H](O)CO)cnc21` [TAK-733], the Kd in test [1], in [2], in test [3], in test [4], in test [5] and in test [6] was > 30 µM (inactive) in each case. Besides, the Kd in test [7], in test [8] and in test [9] was > 30 µM (inactive) throughout.
In the case of `S=C(NCc1ccc2c(c1)OCO2)N1CCN(c2ncnc3c2oc2ccccc23)CC1` [AMUVATINIB], the Kd in test [1], in test [2], in [3], in test [4], in [5] and in [6] was > 30 µM (inactive) in each case. Also, the Kd in [7], in test [8] and in test [9] was > 30 µM (inactive) in each case.
As to `C=CC(=O)Nc1cc(Nc2nccc(-c3cn(C)c4ccccc34)n2)c(OC)cc1N(C)CCN(C)C` [OSIMERTINIB], the Kd in [1], in test [2], in test [3], in test [4], in test [5] and in test [6] was > 30 µM (inactive) in each case. Moreover, the Kd in test [7], in test [8] and in test [9] was > 30 µM (inactive) each time.
For `Cn1cc(-c2[nH]c3cc(NC(=O)[C@H](N)C4CCCCC4)cc4c3c2C=NNC4=O)cn1`, the Kd in [1] is 14.8 µM (active); in [2], > 30 µM (inactive); in test [3], > 30 µM (inactive); in test [4], 2.64 µM (active); in test [5], > 30 µM (inactive); in [6] it was > 30 µM (inactive). Besides, the Kd in test [7], in test [8] and in [9] was > 30 µM (inactive) in each case.
Regarding `COCCN1CCN(Cc2ccc(-c3n[nH]c4c3C(=O)c3c(NC(=O)NN5CCOCC5)cccc3-4)cc2)CC1` [RGB-286638], the Kd in test [1] is 0.008 µM (active); in test [2], > 30 µM (inactive); in [3], > 30 µM (inactive); in test [4] it was > 30 µM (inactive); in test [5] it was > 30 µM (inactive); in [6], > 30 µM (inactive). For the same compound, the Kd in test [7] is > 30 µM (inactive); in test [8], 0.153 µM; in [9], > 30 µM (inactive).
As to `O=C(NC[C@H](O)CO)c1ccncc1Nc1ccc(I)cc1F` [PIMASERTIB], the Kd in test [1], in test [2], in [3], in [4], in test [5] and in test [6] was > 30 µM (inactive) in each case. For the same compound, the Kd in test [7], in [8] and in [9] was > 30 µM (inactive) each time.
With `CCc1cc2c(cc1N1CCC(N3CCOCC3)CC1)C(C)(C)c1[nH]c3cc(C#N)ccc3c1C2=O` [ALECTINIB], the Kd in test [1], in [2], in test [3], in test [4], in test [5] and in test [6] was > 30 µM (inactive) each time. Also, the Kd in test [7] was > 30 µM (inactive); in test [8] it was > 30 µM (inactive); in [9], 0.271 µM.
